Assay in all cases: NCI anticancer screen, dose series, 48 h
Test [1] deals with UO-31 renal.
In test [2] the test system is HS 578T breast.
Test [3] concerns NCI-H460 lung.
Test [4] concerns OVCAR-8 ovarian.
The test system of test [5] is NCI-H226 lung.
Test [6] deals with HCT-116 colon.
For test [7], the system named is HCT-15 colon.
For test [8], the system named is A498 renal.
For test [9], the system named is SNB-75 CNS.
Test [10] relates to SK-MEL-5 melanoma.

Molecules are shown by their SMILES.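 The compound was tested at five concentrations on cells cultured in 96-well plates, with a 48-hour exposure period. GI50 marks 50% less growth. TGI: total growth inhibition.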

For the molecule `COCCOc1cnc2ccn([C@H](C)c3nnc4c(F)cc(-c5cnn(C)c5)cn34)c(=O)c2c1`, the GI50 in test [1] was 70.6 µM; in [2], 82.7 µM; in [3], > 100 µM; in test [4] it was > 100 µM; in test [5] it was > 100 µM; in test [6] it was > 100 µM. Further, the GI50 was > 100 µM in [7], 33.1 µM in [8], 34.9 µM in test [9] and > 100 µM in test [10]. Also, the TGI in test [1], in [2], in test [3], in [4], in test [5] and in test [6] was > 100 µM in each case. Further, the TGI in test [7], in [8], in [9] and in test [10] was > 100 µM throughout.
Regarding `COc1cc2ncn(-c3cc(OCCc4ccccc4)c(C(N)=O)s3)c2cc1OC`, the GI50 was 8.16 µM in test [1]; > 16.1 µM in test [2]; > 25 µM in test [3]; > 25 µM in test [4]; > 25 µM in [5]; 24.6 µM in test [6]. The GI50 was > 25 µM in [7], 2.43 µM in test [8], > 25 µM in test [9] and 11.3 µM in test [10]. The TGI in test [1], in test [2], in test [3], in [4], in [5] and in [6] was > 25 µM throughout. The TGI was > 25 µM in [7], > 22.3 µM in test [8], > 25 µM in test [9] and > 25 µM in test [10].
As for `CCOC(=O)CNC(=O)c1ccccc1Nc1ccnc(C(F)(F)F)c1`, the GI50 in test [1] is 24.4 µM; in test [2], 45.5 µM; in test [3] it was 29.8 µM; in test [4], > 50.8 µM; in test [5], > 100 µM; in [6], 30.5 µM. Also, the GI50 was > 54.6 µM in [7], 64 µM in test [8], > 100 µM in [9] and 14.8 µM in test [10]. The TGI was > 59.5 µM in [1]; > 100 µM in [2]; > 68.1 µM in [3]; > 82.8 µM in [4]; > 100 µM in test [5]; > 69.8 µM in test [6]. For the same molecule, the TGI in test [7] is > 100 µM; in test [8], > 100 µM; in [9], > 100 µM; in test [10] it was 40.4 µM.
`COc1ccc2c(c1)C(C)Cc1c(ncnc1-n1c(C)nc3ccccc31)N2C` (centres undefined): the GI50 in test [1] is 4.59 µM; in test [2] it was 4.12 µM; in [3], 3.85 µM; in test [4] it was 4.83 µM; in test [5], 11.5 µM; in test [6] it was 3.46 µM. For the same molecule, the GI50 was 1.83 µM in test [7], 2.15 µM in [8], 2.41 µM in [9] and 3.42 µM in test [10]. For the same molecule, the TGI came to 20.7 µM in test [1]; 25.3 µM in [2]; 14.4 µM in test [3]; 40.1 µM in test [4]; 36.1 µM in [5]; 16.2 µM in [6]. Further, the TGI in test [7] stood at 16.9 µM; in test [8], 9.03 µM; in [9], 11.1 µM; in test [10], 13 µM.
Turning to `Cc1cc(C2CC(O)C(CO)O2)cc2c(=O)[nH]c(N)nc12` (centres undefined), the GI50 in test [1], in test [2], in [3], in [4], in test [5] and in test [6] was > 100 µM each time. For the same molecule, the GI50 was > 100 µM in test [7], > 100 µM in test [8], 81.3 µM in [9] and > 100 µM in test [10]. Moreover, the TGI in [1], in test [2], in [3], in [4], in [5] and in test [6] was > 100 µM in each case. For the same molecule, the TGI in [7], in test [8], in test [9] and in [10] was > 100 µM throughout.
For the molecule `NC(CS/C(Cl)=C/Cl)C(=O)O` (centres undefined), the GI50 was 54.8 µM in [1]; 55.1 µM in test [2]; 0.427 µM in test [3]; 24.1 µM in [4]; > 100 µM in test [5]; 34.6 µM in test [6]. In addition, the GI50 in test [7] was 28.7 µM; in test [8], 8.7 µM; in test [9], > 75.9 µM; in test [10], 3.11 µM. In addition, the TGI in test [1] is > 100 µM; in [2], > 100 µM; in test [3], 2 µM; in test [4], > 100 µM; in test [5] it was > 100 µM; in test [6] it was > 100 µM. Further, the TGI in test [7] is > 100 µM; in test [8], 33.8 µM; in test [9] it was > 100 µM; in test [10], 12.9 µM.
Consider `O=C(O)CC[N+]1=CCC(c2ccccc2)(c2ccccc2)O1`, for which the TGI in [1], in test [2], in test [3], in test [4], in test [5] and in test [6] was > 100 µM throughout. Also, the TGI in test [7], in test [8], in test [9] and in test [10] was > 100 µM each time.
`CC(=O)O[C@H](C[C@H](C(C)C)N(C)C(=O)[C@@H](NC(=O)[C@H]1CCCCN1C)C(C)C)c1nc(C(=O)N[C@@H](Cc2ccccc2)C[C@H](C)C(=O)O)c(CCOCc2ccccc2)s1`: the GI50 in [1] was 0.00486 µM; in test [2], < 0.001 µM; in test [3] it was < 0.001 µM; in test [4], < 0.001 µM; in test [5] it was < 0.001 µM; in [6], < 0.001 µM. Besides, the GI50 in test [7], in test [8], in [9] and in [10] was < 0.001 µM throughout. Moreover, the TGI in test [1] was > 10 µM; in [2], > 10 µM; in test [3] it was > 10 µM; in test [4] it was > 10 µM; in test [5] it was 0.00313 µM; in [6], 0.176 µM. Moreover, the TGI in test [7] was > 10 µM; in test [8], 0.00316 µM; in test [9], 5.67 µM; in [10] it was 0.00159 µM.
For `COc1cc(C2=C(c3cn(C)c4ccccc34)COC2=O)cc(OC)c1OC`, the GI50 in test [1] is 0.226 µM; in [2], 0.159 µM; in test [3], 0.0532 µM; in test [4] it was 0.338 µM; in test [5], 1.1 µM; in test [6], 0.0396 µM. For the same molecule, the GI50 in [7] was 0.0416 µM; in test [8] it was 0.0171 µM; in test [9], 0.0438 µM; in test [10], 0.0773 µM. Also, the TGI was 6.37 µM in test [1]; 3.58 µM in test [2]; 1.68 µM in [3]; > 23.6 µM in [4]; 7.3 µM in test [5]; 2.28 µM in test [7]. Moreover, the TGI came to 0.109 µM in test [8], 0.522 µM in test [9] and 1.4 µM in test [10].
Regarding `CC1CCC(=O)C(C(=O)CC2CC(=O)NC(=O)C2)C1` (centres undefined), the TGI in test [1], in test [2], in test [3], in test [4], in [5] and in [6] was > 100 µM throughout. The TGI in [7], in test [8], in test [9] and in [10] was > 100 µM each time.
On to `COc1cccc(/C(COc2ccc3c(c2)oc(=O)c2cc(OC)ccc23)=N/O)c1`, for which the GI50 is 7.11 µM in test [1]; 14.5 µM in test [2]; 3.81 µM in test [3]; 9.77 µM in test [4]; 51.9 µM in test [5]; 4.27 µM in test [6]. Besides, the GI50 in [7] was 3.99 µM; in [8], 3.02 µM; in test [9] it was 2.36 µM; in test [10], 4.95 µM. In addition, the TGI in test [1] was 75.6 µM; in test [2], > 100 µM; in [3], > 100 µM; in test [4], > 100 µM; in test [5] it was > 100 µM; in test [6] it was > 100 µM. Further, the TGI is > 100 µM in test [7], 25.8 µM in [8], 9.61 µM in test [9] and 80.5 µM in test [10].
Take `CCC(C)(C)c1ccc(OCCCCCCN2CCNCC2)cc1`: the GI50 is 1.93 µM in [1]; 1.97 µM in [2]; 1.94 µM in test [3]; 2.45 µM in test [4]; 3.87 µM in [5]; 1.7 µM in test [6]. Further, the GI50 in test [7] is 1.66 µM; in test [8], 6.82 µM; in test [9], 1.46 µM; in [10], 1.76 µM. The TGI was 4.8 µM in test [1]; 5.17 µM in test [2]; 3.87 µM in test [3]; 5.3 µM in test [4]; 18 µM in [5]; 3.12 µM in [6]. Further, the TGI in test [7] was 3.39 µM; in [8], 24.5 µM; in test [9] it was 3.51 µM; in [10], 3.24 µM.
